# System: Dog PRP
# Test: In-Vitro Platelet Aggregation in PRP (ADP-induced, dog platelet-rich plasma)
# Type: cell-based
# Conditions: Canis lupus familiaris, 1 minute preincubation at 37° C., IC50 by linear regression of dose response curve
# Method: In-Vitro Platelet Aggregation in PRP
# Healthy male or female dogs were fasted for 8 hours prior to drawing blood; then 30 ml whole blood was collected using a butterfly needle and 30 cc plastic syringe with 3 ml of 0.129M buffered sodium citrate (3.8%). The syringe was rotated carefully as blood was drawn to mix the citrate. Platelet-rich plasma (PRP) was prepared by centrifugation at 975×g for 3.17 minutes at room temperature, allowing the centrifuge to coast to a stop without braking. The PRP was removed from the blood with a plastic pipette and placed in a plastic capped, 50 ml Corning conical sterile centrifuge tube which was held at room temperature. Platelet poor plasma (PPP) was prepared by centrifuging the remaining blood at 2000×g for 15 minutes at room temperature allowing the centrifuge to coast to a stop without braking. The PRP was adjusted with PPP to a count of 2-3×10^8 platelets per ml. 400 μl of the PRP preparation and 50 μl of the compound to be tested or saline were preincubated for 1 minute at 37° C. in a BioData aggregometer (BioData, Horsham, Pa.). 50 μl of adenosine 5'-diphosphate (ADP) (50 μm final concentration) was added to the cuvettes and the aggregation was monitored for 1 minute. All compounds are tested in duplicate. Results are calculated as follows: […]
row,SMILES,IC50 [nM]
1,"N=C(N)c1ccc(CCCCNC(=O)N[C@@H](CC(=O)O)C(=O)N[C@@H](Cc2ccccc2)C(=O)O)cc1 [Example 2, N-[N-[[[4-[4-(aminoiminomethyl)phenyl]butyl]amino]-carbonyl]-L-α-aspartyl]-L-phenylalanine]",760
2,"N=C(N)c1ccc(CCCCNC(=O)N[C@@H](CC(=O)O)C(=O)N[C@@H](Cc2c[nH]c3ccccc23)C(=O)O)cc1 [Example 3, N-[N-[[[4-[4-(aminoiminomethyl)phenyl]butyl]amino]carbonyl]-L-α-spartyl]-L-tryptophane]",200

# From patent US5354738A, “Platelet aggregation inhibitors” (G. D. Searle & Co., priority 1992, dated 1994)
